This note sets out measurements from ChEMBL document CHEMBL4354808, “Drugs for the Treatment of Zika Virus Infection” (J Med Chem, 2020).

Molecules are shown by their SMILES. Non-standard residues stand in square brackets, D forms with d. Residues, ends and D or L forms follow the SMILES beside them. *: point of attachment. Pro(4R-Me) = C[C@H]1CN[C@H](C(=O)O)C1; Oleoyl = CCCCCCCC/C=C\CCCCCCCC(=O)*; hSer = N[C@@H](CCO)C(=O)O

A short description of data set [1]: Cytotoxicity against African green monkey Vero cells after 24 hrs by CCK8 assay. Format: cell-based. The conditions noted are these: chlorocebus sabaeus. Background: Tetrazolium assays rely on reduction of a dye to a coloured formazan, in cell work by metabolically active cells.
Data set [2] is described as follows: Inhibition of Protein E in Zika virus FLR infected in BHK21 cells assessed as antiviral activity after 12 hrs by CCK8 assay. Format: cell-based. Conditions: BHK-21, 12 h.
The nature of data set [3]: Inhibition of Protein E in Zika virus MR766 infected in BHK21 cells assessed as antiviral activity after 12 hrs by CCK8 assay. It counts as cell-based. Conditions: MR766, BHK-21, 12 h.
Data set [4] is described as follows: Cytotoxicity against BHK21 cells after 24 hrs by CCK8 assay. Format: cell-based, Mesocricetus auratus. The conditions noted are these: hamster, BHK-21 cells.
The nature of data set [5]: Inhibition of Protein E in Zika virus SZ01 infected in BHK21 cells assessed as antiviral activity after 12 hrs by CCK8 assay. The conditions noted are these: SZ01, BHK-21, 12 h. It counts as cell-based.
Data set [6] can be described thus: Cytotoxicity against human HuH7 cells after 24 hrs by CCK8 assay. Format: cell-based. Conditions: Huh-7 cells.
Data set [7] has as its system Zika virus. Briefly: Antiviral activity against Zika virus infected in African green monkey Vero E6 cells assessed as reduction in virus infectivity preincubated with virus for 1 hr followed by cell infection and measured after 96 hrs by crystal violet staining based assay. It counts as functional, organism-based. Conditions: Vero C1008.
The nature of data set [8]: Cytotoxicity against African green monkey Vero E6 cells measured up to 24 to 72 hrs by MTT assay. Format: cell-based, Vero C1008. Conditions: chlorocebus sabaeus.
Data set [9] has as its system Zika virus. Nature of the data set: Antiviral activity against Zika virus infected in African green monkey Vero E6 cells assessed as reduction in virus infectivity at 40 uM preincubated with virus for 1 hr followed by cell infection and measured after 96 hrs by crystal violet staining based assay relative to control. It counts as functional. Conditions: Vero C1008.

The subject of data set [10] is Zika virus. Nature of the data set: Antiviral activity against Zika virus infected in African green monkey Vero E6 cells assessed as reduction in virus infectivity at 160 uM preincubated with virus for 1 hr followed by cell infection and measured after 96 hrs by crystal violet staining based assay relative to control. Format: functional. Conditions: Vero C1008.
Data set [11] can be described thus: Cytotoxicity against HBMEC after 24 hrs by resazurin-dye based Alamar blue assay. Conditions: human.
Data set [12] can be described thus: Inhibition of DHFR in Zika virus Mex2-81 infected in HBMEC assessed as antiviral activity incubated for 24 hrs.
Data set [13] can be described thus: Cytotoxicity against human HuH7 cells by MTS assay. Format: cell-based. The conditions noted are these: Huh-7 cells.
Data set [14] can be described thus: (§1) Inhibition of IMPDH in Zika virus MR766 infected in human HuH7 cells assessed as antiviral activity by measuring reduction in viral replication preincubated for 12 hrs followed by viral infection and measured day 2 post infection by qRT-PCR method. Format: cell-based. The conditions noted are these: MR766, Huh-7. (In general: In qPCR the cycle at which signal appears reflects the starting amount.)

In data set [15] the test system is Zika virus. The description is as §1. It counts as cell-based.
Data set [16] in a line: Cytotoxicity against human JEG3 cells by alamarBlue assay. Format: cell-based. The conditions noted are these: JEG-3 cells. In general terms: The colour change of resazurin is a common sign of viable cells or microbes.
The subject of data set [17] is Zika virus. Briefly: Antiviral activity against Zika virus PRVABC59 Puerto Rico infected in human JEG3 cells after 24 hrs by plaque assay. Format: functional, organism-based. The conditions noted are these: JEG-3, 24 h.
Data set [18] can be described thus: Activation of AMPK in African green monkey Vero cells infected with Zika virus PA259459 assessed as antiviral activity measured 24 hrs post infection by plaque assay. Format: cell-based. The conditions noted are these: Chlorocebus aethiops.
Data set [19] concerns Zika virus. Nature of the data set: Antiviral activity against Zika virus H/PAN/2016/BEI-259634 infected in human NSC by CellTiter-Glo assay. It counts as functional, organism-based.
In data set [20] the test system is Zika virus. Nature of the data set: Antiviral activity against Zika virus infected in African green monkey Vero cells after 72 hrs by DAPI-staining based assay. Format: functional, organism-based.
A short description of data set [21]: Cytotoxicity against human NSC. It counts as cell-based. The conditions noted are these: NSC cells.
The nature of data set [22]: Cytotoxicity against African green monkey Vero cells. The conditions noted are these: chlorocebus sabaeus. Format: cell-based.
The nature of data set [23]: Cytotoxicity against human A549 cells. It counts as cell-based.
Data set [24] concerns Zika virus. Nature of the data set: Antiviral activity against Zika virus infected in human A549 cells. Format: functional, organism-based.
A short description of data set [25]: Inhibition of Protein E in Zika virus infected in African green monkey Vero cells assessed as antiviral activity preincubated for 1 hr followed by viral infection and measured 24 hr post infection by plaque assay. It counts as cell-based.
Data set [26] relates to Zika virus. Nature of the data set: Antiviral activity against Zika virus MR 766 infected in African green monkey Vero cells measured 5 days post infection by CellTiter Blue assay. Format: functional, organism-based. The conditions noted are these: MR 766, Vero, 120 h.
Data set [27] in a line: Cytotoxicity against HBMEC after 5 days by CellTiter Blue assay. The conditions noted are these: human.
In data set [28] the test system is Zika virus. Briefly: Antiviral activity against Zika virus MR 766 infected in HBMEC measured 5 days post infection by CellTiter Blue assay. Format: functional, organism-based. Conditions: MR 766, 120 h.
Data set [29] has as its system Zika virus. Briefly: Antiviral activity against Zika virus MR 766 infected in human NSC measured 5 days post infection by CellTiter Blue assay. It counts as functional, organism-based. Conditions: MR 766, 120 h.
Data set [30] in a line: Cytotoxicity against human NSC after 5 days by CellTiter Blue assay. Format: cell-based. The conditions noted are these: NSC cells.
Data set [31] can be described thus: Cytotoxicity against African green monkey Vero cells after 5 days by CellTiter Blue assay. Format: cell-based. Conditions: chlorocebus sabaeus.

One may read the CC50 as the concentration that lowers cell viability or growth by half. One may read the EC50 as the concentration at which the effect is half-maximal. For the molecule `CC[C@H](C)[C@H](NC(=O)CNC(=O)[C@H](CCCCN)NC(=O)CNC(=O)[C@H](CC(C)C)NC(=O)[C@H](CO)NC(=O)[C@H](CC(N)=O)NC(=O)[C@H](CC(C)C)NC(=O)[C@H](C)NC(=O)CNC(=O)CNC(=O)[C@@H](NC(=O)[C@H](CO)NC(=O)CNC(=O)[C@H](Cc1ccccc1)NC(=O)[C@H](CC(=O)O)NC(=O)[C@H](Cc1c[nH]c2ccccc12)NC(=O)[C@H](C)NC(=O)[C@@H](NC(=O)[C@H](CC(=O)O)NC(=O)CNC(=O)[C@H](CC(C)C)NC(=O)[C@@H](NC(=O)[C@H](C)NC(=O)[C@@H](N)CCSC)C(C)C)[C@@H](C)O)C(C)C)C(=O)N[C@@H](Cc1cnc[nH]1)C(=O)N[C@@H](CCC(N)=O)C(=O)N[C@H](C(=O)N[C@@H](Cc1ccccc1)C(=O)NCC(=O)N[C@@H](C)C(=O)N[C@@H](C)C(=O)N[C@@H](Cc1ccccc1)C(=O)O)[C@@H](C)CC` (H-MAVLGDTAWDFGSVGGALNSLGKGIHQIFGAAF-OH), the CC50 at 24 h in data set [1], in data set [4] and in [6] was over 50 µM in each case. Further, the EC50 in data set [2], in [3] and in data set [5] was 1.75 to 13.9 µM throughout.
The term IC50 denotes the concentration needed to halve the response being measured. As a reminder, the inhibition is the change of the read-out against control, counted positive when it falls. As for `Cc1cc(O)c2c(c1)C(=O)c1cc(O)cc(O)c1C2=O` [EMODIN], the IC50 in the data set on Zika virus [7] amounted to 3.2 µM. The molecule further registered a CC50 in data set [8] of 68.6 µM. In addition, the inhibition at 40 µM with Zika virus [9] was determined as 88.3%.
In the case of `COc1ccc2cc3[n+](cc2c1OC)CCc1cc2c(cc1-3)OCO2` [BERBERINE], the IC50 in the data set on Zika virus [7] is 39.1 µM. Besides, the inhibition at 160 µM with Zika virus [10] worked out at 77.6%. In addition, half-maximal cytotoxicity in data set [8] (CC50) was put at 221 µM.
Molecule `CN(Cc1cnc2nc(N)nc(N)c2n1)c1ccc(C(=O)N[C@@H](CCC(=O)O)C(=O)O)cc1` [METHOTREXATE] came in with a half-maximal cytotoxic concentration (CC50) at 24 h in [11] of over 10 µM. Further, the EC50 in [12] came out at 0.28 µM.
What is called EC90 is the concentration needed for an effect of 90%. `COc1cc(NC(=O)Nc2cccc(CNC(=O)O[C@H]3CCOC3)c2)ccc1-c1cnco1` [MERIMEPODIB] registered a CC50 in [13] of over 10 µM. Further, the EC50 in data set [14] stood at 0.6 µM. For the same molecule, in the data set on Zika virus [15], the EC90 turned out to be 1 µM.
For `O=C1C[C@@H](c2ccccc2)Oc2cc(O)cc(O)c21` [PINOCEMBRIN], in data set [16], the CC50 stood at 251 µM. Moreover, the EC50 in the data set on Zika virus [17] stood at 17.4 µM.
In the case of `O=C(O)c1c[nH]c2cc(Cl)c(-c3ccc(C4(O)CCC4)cc3)cc12`, the EC50 in data set [18] was found to be 2.6 µM.
With `O=C(c1cc(Cl)cc(Cl)c1O)c1[nH]c(F)c(Br)c1Br`, the EC50 with Zika virus [19] stood at 8.56 µM; in the data set with Zika virus [20], 5.95 µM. For the same molecule, the CC50 in data set [21] and in [22] was over 100 µM in each case.
With `CCCCCCCC/C=C\CCCCCCCC(=O)N[C@H](C(=O)N1C[C@H](C)C[C@H]1C(=O)N[C@H](C(=O)N[C@@H](CCO)C(=O)N[C@@H](C)C=O)C(C)C)[C@@H](C)O` (Oleoyl-T[Pro(4R-Me)]V[hSer]A-aldehyde), half-maximal cytotoxicity in [23] (CC50) was put at 1.65 µM. In the data set with Zika virus [24], the response was half-maximal at 0.15 µM (EC50).
In turn, `CC[C@H](C)[C@H](NC(=O)[C@H](CO)NC(=O)CNC(=O)[C@H](Cc1ccccc1)NC(=O)[C@H](CC(=O)O)NC(=O)[C@H](Cc1c[nH]c2ccccc12)NC(=O)[C@H](C)N)C(=O)NCC(=O)NCC(=O)N[C@H](C(=O)N[C@@H](Cc1ccccc1)C(=O)N[C@@H](CC(N)=O)C(=O)N[C@@H](CO)C(=O)N[C@H](C(=O)NCC(=O)N[C@@H](CCCCN)C(=O)N[C@@H](C)C(=O)N[C@H](C(=O)N[C@@H](Cc1cnc[nH]1)C(=O)N[C@@H](CCC(N)=O)C(=O)N[C@H](C(=O)N[C@@H](Cc1ccccc1)C(=O)O)C(C)C)C(C)C)[C@@H](C)CC)C(C)C` showed a CC50 in data set [22] of over 10 µM. In addition, the EC50 in [25] is 3.27 µM.
Consider `CCN(CC)CCCC(C)Nc1ccnc2cc(Cl)ccc12` (centres undefined) [CHLOROQUINE], for which the EC50 in the data set with Zika virus [26], in the data set with Zika virus [28] and with Zika virus [29] was 9.82 to 14.2 µM throughout. For the same molecule, the CC50 at 120 h in data set [27], in data set [30] and in data set [31] was 95 to 135 µM in each case.
